Measured values taken from patent US10894807B2 (Siemens Medical Solutions USA, Inc., priority 2011, dated 2021).

Target: human PSMA (Homo sapiens (Human), UniProt Q04609)
Test: Enzymatic assay for in vitro evaluation of PSMA inhibitors (fluorescent assay of PSMA activity, NAAG substrate, OPA detection of glutamate)
Assay type: biochemical
Conditions: compound at 10 μM

human PSMA, sequence (Q04609 whole entry): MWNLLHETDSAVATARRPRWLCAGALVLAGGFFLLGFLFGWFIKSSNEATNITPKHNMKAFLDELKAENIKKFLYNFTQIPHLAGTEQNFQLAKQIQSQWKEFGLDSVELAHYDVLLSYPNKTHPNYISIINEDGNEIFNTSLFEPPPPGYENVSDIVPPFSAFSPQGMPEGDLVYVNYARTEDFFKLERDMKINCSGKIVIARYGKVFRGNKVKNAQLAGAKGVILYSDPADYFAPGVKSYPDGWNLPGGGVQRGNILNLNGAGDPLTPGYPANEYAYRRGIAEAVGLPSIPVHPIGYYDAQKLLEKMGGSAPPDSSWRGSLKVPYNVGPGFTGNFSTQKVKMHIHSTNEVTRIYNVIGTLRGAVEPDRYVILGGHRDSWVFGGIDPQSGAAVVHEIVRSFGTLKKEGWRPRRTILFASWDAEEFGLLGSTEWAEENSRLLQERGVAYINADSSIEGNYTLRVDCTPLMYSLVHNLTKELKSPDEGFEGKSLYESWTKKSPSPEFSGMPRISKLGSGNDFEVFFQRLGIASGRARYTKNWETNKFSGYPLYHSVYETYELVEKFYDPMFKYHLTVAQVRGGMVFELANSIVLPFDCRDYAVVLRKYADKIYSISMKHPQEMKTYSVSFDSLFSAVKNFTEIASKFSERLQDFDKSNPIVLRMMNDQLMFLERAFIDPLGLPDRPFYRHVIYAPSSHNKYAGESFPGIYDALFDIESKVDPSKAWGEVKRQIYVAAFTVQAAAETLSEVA

Point of comparison: `CCC1(CC)C(=O)N([C@@H](CCCCNC/C=C/c2ccc(-n3cc(CCCF)nn3)cc2)C(=O)O)C(=O)N([C@@H](CCC(=O)O)C(=O)O)C1=O` [P114, (S)-2-(3-((S)-1-Carboxy-5-((E)-3-(4-(4-(3-fluoropropyl)-1H-1,2,3-triazol-1-yl)phenyl)allylamino)pentyl)-5,5-diethyl-2,4,6-trioxotetrahydropyrimidin-1(2H)-yl)pentanedioic Acid], “PSMA Blkg % (10 μM)” value 8%. Against it:
- CCC1(CC)C(=O)N([C@@H](CCCCNCc2ccc([N+](=O)[O-])cc2)C(=O)O)C(=O)N([C@@H](CCC(=O)O)C(=O)O)C1=O [P110, (S)-2-(3-((S)-1-carboxy-5-(4-nitrobenzylamino)pentyl)-5,5-diethyl-2,4,6-trioxotetrahydropyrimidin-1(2H)-yl)pentanedioic Acid] — the same, 8%
- O=C(O)CC[C@H](NC(=O)CCN(O)C(=O)CCCc1ccc(-n2cc(CCCF)nn2)cc1)C(=O)O [P111, (S)-2-(3-(4-(4-(4-(3-Fluoropropyl)-1H-1,2,3-triazol-1-yl)phenyl)-N-hydroxybutanamido)propanamido)pentanedioic Acid] — higher, 9%
- CCC1(CC)C(=O)N([C@@H](CCCCNCc2ccc(OC)cc2)C(=O)O)C(=O)N([C@@H](CCC(=O)O)C(=O)O)C1=O [P112, (S)-2-(3-((S)-1-Carboxy-5-(4-methoxybenzylamino)pentyl)-5,5-diethyl-2,4,6-trioxotetrahydropyrimidin-1(2H)-yl)pentanedioic Acid] — lower, 4%
- CCC1(CC)C(=O)N([C@@H](CCCCNC(=O)c2ccc(F)nc2)C(=O)O)C(=O)N([C@@H](CCC(=O)O)C(=O)O)C1=O [P113, (S)-2-(3-((S)-1-Carboxy-5-(6-fluoronicotinamido)pentyl)-5,5-diethyl-2,4,6-trioxotetrahydropyrimidin-1(2H)-yl)pentanedioic Acid] — higher, 11%
- O=C(O)CC[C@H](NC(=O)C[C@H](NC(=O)CCCc1ccc(-n2cc(CCCF)nn2)cc1)C(=O)O)C(=O)O [P115] — higher, 36%
- O=C(O)CC[C@H](NC(=O)C[C@H](NC(=O)CCCNC(=O)OCc1ccccc1)C(=O)O)C(=O)O [P116, (10S,14S)-3,8,12-Trioxo-1-phenyl-2-oxa-4,9,13-triazahexadecane-10,14,16-tricarboxylic Acid] — higher, 31%
- O=C(O)CC[C@@H](C(=O)O)N1C(=O)NC(=O)/C(=C(/O)CCC(NC(=O)OCC2c3ccccc3-c3ccccc32)C(=O)O)C1=O (stereo partly shown) [P117] — higher, 18%
- CCC1(CC)C(=O)N([C@@H](CCCCNC(=O)OCc2ccc([N+](=O)[O-])cc2)C(=O)O)C(=O)N([C@@H](CCC(=O)O)C(=O)O)C1=O [P118, (S)-2-(3-((S)-1-Carboxy-5-((4-nitrobenzyloxy)carbonylamino)pentyl)-5,5-diethyl-2,4,6-trioxotetrahydropyrimidin-1(2H)-yl)pentanedioic Acid] — higher, 13%
- O=C(O)CC[C@H](NC(=O)C[C@H](NC(=O)CCCCNC(=O)c1ccccc1)C(=O)O)C(=O)O [P119, (S)-2-((S)-3-(5-Benzamidopentanamido)-3-carboxypropanamido)pentanedioic Acid] — higher, 26%
- O=C(O)CC[C@@H](C(=O)O)N1C(=O)CC(=O)N([C@@H](CCCCNC(=O)OCc2ccc([N+](=O)[O-])cc2)C(=O)O)C1=O [P120, (S)-2-(3-((S)-1-Carboxy-5-((4-nitrobenzyloxy)carbonylamino)pentyl)-2,4,6-trioxotetrahydropyrimidin-1(2H)-yl)pentanedioic Acid] — higher, 15%
- NC(=O)CCC(C(=O)O)n1cc(COc2ccc3ccc(=O)oc3c2)nn1 (stereo not shown) [P121, 5-Amino-5-oxo-2-(4-(((2-oxo-2H-chromen-7-yl)oxy)methyl)-1H-1,2,3-triazol-1-yl)pentanoic Acid] — lower, 7%
- COc1ccc(CCCC(=O)N[C@@H](CC(=O)N[C@@H](CCC(=O)O)C(=O)O)C(=O)O)cc1 [P122, (S)-2-((S)-3-Carboxy-3-(4-(4-methoxyphenyl)butanamido)propanamido)-pentanedioic Acid] — higher, 18%
